Laboratory results from PubChem BioAssay AID248 (DTP/NCI, 2004).
Several values for one entry are separate records, joined by “and”; a condition that tells them apart may be missing. Equal values may be shown once. Toxic doses and inconclusive results are not listed. Cut-off read from the data, not from the text of the source: active = T/C of 150% or more; inactive = T/C below 125%.

Test system: L1210 leukemia ip in BDF1 mice, survival T/C
Assay: NCI In Vivo Anticancer Drug Screen. Data for tumor model L1210 Leukemia (intraperitoneal) in B6D2F1 (BDF1) mice
Conditions: endpoint: mean survival time, higher = longer survival
Summary of the method: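 Tumor was transplanted into mice, which were then dosed with test compound or vehicle alone. Survival was recorded for each group, and the treated figure was expressed relative to the control figure.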

[1] = dose: 50.0 mg/kg/injection, schedule: Q01DX009 (ip), vehicle: saline with Tween-80
[2] = dose: 100.0 mg/kg/injection, schedule: Q04DX003 (ip), vehicle: saline with Tween-80
[3] = dose: 200.0 mg/kg/injection, schedule: Q01DX009 (ip), vehicle: saline with Tween-80
[4] = dose: 400.0 mg/kg/injection, schedule: Q01DX009 (ip), vehicle: saline with Tween-80
[5] = dose: 100.0 mg/kg/injection, schedule: Q01DX009 (ip), vehicle: saline with Tween-80
[6] = dose: 200.0 mg/kg/injection, schedule: Q04DX003 (ip), vehicle: saline with Tween-80
[7] = dose: 400.0 mg/kg/injection, schedule: Q04DX003 (ip), vehicle: saline with Tween-80
[8] = dose: 50.0 mg/kg/injection, schedule: Q01DX001 (ip), vehicle: saline
[9] = dose: 100.0 mg/kg/injection, schedule: Q01DX009 (ip), vehicle: saline
[10] = dose: 200.0 mg/kg/injection, schedule: Q01DX009 (ip), vehicle: saline
[11] = dose: 100.0 mg/kg/injection, schedule: Q01DX009 (ip), vehicle: Klucel (hydroxypropylcellulose) (HPC)
[12] = dose: 200.0 mg/kg/injection, schedule: Q01DX009 (ip), vehicle: Klucel (hydroxypropylcellulose) (HPC)
[13] = dose: 12.5 mg/kg/injection, schedule: Q01DX009 (ip), vehicle: saline
[14] = dose: 25.0 mg/kg/injection, schedule: Q01DX009 (ip), vehicle: saline
[15] = dose: 100.0 mg/kg/injection, schedule: Q04DX003 (ip), vehicle: saline
[16] = dose: 200.0 mg/kg/injection, schedule: Q04DX003 (ip), vehicle: saline
[17] = dose: 400.0 mg/kg/injection, schedule: Q04DX003 (ip), vehicle: saline
[18] = dose: 100.0 mg/kg/injection, schedule: Q01DX001 (ip), vehicle: saline
[19] = dose: 200.0 mg/kg/injection, schedule: Q01DX001 (ip), vehicle: saline
[20] = dose: 400.0 mg/kg/injection, schedule: Q01DX001 (ip), vehicle: saline
[21] = dose: 50.0 mg/kg/injection, schedule: Q01DX009 (ip), vehicle: saline

Measured: T/C

COc1cc(OC)c(NC(=O)Nc2cccc(Cl)c2C)cc1Cl
inactive: dose: 12.5 mg/kg/injection, schedule: Q01DX009 (ip), vehicle: saline with Tween-80 97 % of control and 92 % of control | dose: 25.0 mg/kg/injection, schedule: Q01DX009 (ip), vehicle: saline with Tween-80 94 % of control and 95 % of control | dose: 25.0 mg/kg/injection, schedule: Q04DX003 (ip), vehicle: saline with Tween-80 89 % of control | [1] 95 % of control and 87 % of control | dose: 50.0 mg/kg/injection, schedule: Q04DX003 (ip), vehicle: saline with Tween-80 97 % of control | dose: 100.0 mg/kg/injection, schedule: Q04DX002 (ip), vehicle: saline with Tween-80 86 % of control and 91 % of control | [2] 92 % of control | [3] 89 % of control and 91 % of control | dose: 200.0 mg/kg/injection, schedule: Q04DX002 (ip), vehicle: saline with Tween-80 87 % of control and 90 % of control | [4] 96 % of control and 91 % of control | dose: 400.0 mg/kg/injection, schedule: Q04DX002 (ip), vehicle: saline with Tween-80 104 % of control and 91 % of control

COc1cc(NS(=O)(=O)c2ccc(C)cc2)c2c(c1N)C(=O)c1ccccc1C2=O
inactive: [5] 105 % of control | [2] 98 % of control | [3] 94 % of control | [6] 98 % of control | [4] 100 % of control | [7] 93 % of control

C=CCN(CC=C)P(=O)(N1CC1)N1CC1
inactive: dose: 6.2 mg/kg/injection, schedule: Q01DX001 (ip), vehicle: saline 88 % of control | dose: 12.5 mg/kg/injection, schedule: Q01DX001 (ip), vehicle: saline 88 % of control | dose: 25.0 mg/kg/injection, schedule: Q01DX001 (ip), vehicle: saline 88 % of control | [8] 88 % of control

CCc1ccc(N=Nc2ccc(NC)cc2)cc1
inactive: dose: 100.0 mg/kg/injection, schedule: Q01DX001 (ip), vehicle: carboxymethylcellulose (CMC) 98 % of control | dose: 200.0 mg/kg/injection, schedule: Q01DX001 (ip), vehicle: carboxymethylcellulose (CMC) 93 % of control | dose: 400.0 mg/kg/injection, schedule: Q01DX001 (ip), vehicle: carboxymethylcellulose (CMC) 98 % of control

O=C1c2ccccc2S(=O)(=O)N1CC(O)COc1ccc(Cl)cc1 (centres undefined)
inactive: [5] 93 % of control | [3] 102 % of control | [4] 101 % of control

CCC(=O)OCCOc1ccc(C(C)(C)C)cc1
inactive: dose: 50.0 mg/kg/injection, schedule: Q04DX002 (ip), vehicle: saline 98 % of control | [9] 98 % of control | dose: 100.0 mg/kg/injection, schedule: Q04DX002 (ip), vehicle: saline 94 % of control | [10] 103 % of control | dose: 200.0 mg/kg/injection, schedule: Q04DX002 (ip), vehicle: saline 91 % of control

Nc1ccccc1C(=O)N/N=C/c1ccc(Cl)cc1Cl
inactive: [11] 89 % of control | dose: 100.0 mg/kg/injection, schedule: Q04DX002 (ip), vehicle: Klucel (hydroxypropylcellulose) (HPC) 95 % of control | [12] 98 % of control | dose: 200.0 mg/kg/injection, schedule: Q04DX002 (ip), vehicle: Klucel (hydroxypropylcellulose) (HPC) 102 % of control | dose: 400.0 mg/kg/injection, schedule: Q04DX002 (ip), vehicle: Klucel (hydroxypropylcellulose) (HPC) 104 % of control

CCOC(=O)NCC[N+](C)(C)C
inactive: dose: 6.25 mg/kg/injection, schedule: Q01DX009 (ip), vehicle: saline 94 % of control | [13] 100 % of control | [14] 102 % of control

O=C(Nc1cccs1)c1ccccc1
inactive: [15] 97 % of control | [16] 93 % of control | [17] 95 % of control

CO/N=C/c1ccc([N+](=O)[O-])cc1
inactive: dose: 100.0 mg/kg/injection, schedule: Q01DX001 (ip), vehicle: Klucel (hydroxypropylcellulose) (HPC) 96 % of control | dose: 200.0 mg/kg/injection, schedule: Q01DX001 (ip), vehicle: Klucel (hydroxypropylcellulose) (HPC) 95 % of control | dose: 400.0 mg/kg/injection, schedule: Q01DX001 (ip), vehicle: Klucel (hydroxypropylcellulose) (HPC) 98 % of control

CC(=O)OCC1C(OC(C)=O)C(OC(C)=O)C(OC(C)=O)N1C(C)=O (centres undefined)
inactive: [8] 98 % of control | [18] 95 % of control | [19] 98 % of control | [20] 98 % of control

CC(=O)OC1COC(SC(=N)N)C(OC(C)=O)C1OC(C)=O (centres undefined)
inactive: dose: 75.0 mg/kg/injection, schedule: Q01DX001 (ip), vehicle: water 101 % of control and 104 % of control | dose: 150.0 mg/kg/injection, schedule: Q01DX001 (ip), vehicle: water 104 % of control and 103 % of control | dose: 300.0 mg/kg/injection, schedule: Q01DX001 (ip), vehicle: water 97 % of control and 95 % of control

COC(=O)Nc1ccccc1[N+](=O)[O-]
inactive: dose: 100.0 mg/kg/injection, schedule: Q04DX003 (ip), vehicle: other 103 % of control | dose: 200.0 mg/kg/injection, schedule: Q04DX003 (ip), vehicle: other 101 % of control | dose: 400.0 mg/kg/injection, schedule: Q04DX003 (ip), vehicle: other 111 % of control

Nc1ncnc2nc(-c3ccc(OCCCOc4ccccc4)c(Cl)c3)[nH]c12
inactive: dose: 6.25 mg/kg/injection, schedule: Q01DX001 (ip), vehicle: saline with Tween-80 94 % of control | dose: 12.5 mg/kg/injection, schedule: Q01DX001 (ip), vehicle: saline with Tween-80 89 % of control | dose: 50.0 mg/kg/injection, schedule: Q01DX001 (ip), vehicle: saline with Tween-80 88 % of control

CCCCC[C@@H](CN(C)C)[C@H](O)/C=C/c1ccc(Cl)cc1
inactive: [13] 102 % of control | dose: 12.5 mg/kg/injection, schedule: Q04DX003 (ip), vehicle: saline 88 % of control | [14] 98 % of control | dose: 25.0 mg/kg/injection, schedule: Q04DX003 (ip), vehicle: saline 93 % of control | [21] 93 % of control and 97 % of control | dose: 50.0 mg/kg/injection, schedule: Q04DX003 (ip), vehicle: saline 93 % of control | [16] 102 % of control

CC(=O)OCC1OC(N2CCc3cc([N+](=O)[O-])ccc32)C(OC(C)=O)C(OC(C)=O)C1OC(C)=O (centres undefined)
inactive: [8] 97 % of control | [18] 96 % of control | [19] 96 % of control

Cc1cccc(/C=C2/SC(=S)N(c3ccccc3)C2=O)c1
inactive: [18] 100 % of control | [19] 98 % of control | [20] 105 % of control

Cc1ccc(NC(=S)NC(=O)c2cccc([N+](=O)[O-])c2)cc1C
inactive: [1] 97 % of control and 112 % of control | dose: 100.0 mg/kg/injection, schedule: Q01DX001 (ip), vehicle: saline with Tween-80 92 % of control | dose: 100.0 mg/kg/injection, schedule: Q04DX002 (ip), vehicle: alcohol 93 % of control and 103 % of control | [2] 95 % of control | dose: 200.0 mg/kg/injection, schedule: Q01DX001 (ip), vehicle: saline with Tween-80 101 % of control | dose: 200.0 mg/kg/injection, schedule: Q04DX002 (ip), vehicle: alcohol 93 % of control and 103 % of control | [6] 94 % of control | dose: 400.0 mg/kg/injection, schedule: Q01DX001 (ip), vehicle: saline with Tween-80 98 % of control | dose: 400.0 mg/kg/injection, schedule: Q04DX002 (ip), vehicle: alcohol 93 % of control and 98 % of control | [7] 106 % of control

NC(=S)N/N=C/c1ccncc1
inactive: [21] 96 % of control | [9] 98 % of control | [15] 96 % of control | [10] 93 % of control | [16] 91 % of control

C=C1C(=O)OC2C1CCC(C)C1C=CC(=O)C12C (centres undefined)
inactive: [21] 98 % of control | [9] 96 % of control | [10] 98 % of control

CNC(=O)CCC(=O)NC
inactive: dose: 75.0 mg/kg/injection, schedule: Q04DX003 (ip), vehicle: saline 95 % of control | [15] 100 % of control | dose: 150.0 mg/kg/injection, schedule: Q04DX003 (ip), vehicle: saline 98 % of control | [16] 102 % of control | dose: 300.0 mg/kg/injection, schedule: Q04DX003 (ip), vehicle: saline 95 % of control | [17] 111 % of control

COc1ccc(C)cc1NC(=O)Nc1ccc(SC)cc1
inactive: [11] 87 % of control | [12] 95 % of control | dose: 400.0 mg/kg/injection, schedule: Q01DX009 (ip), vehicle: Klucel (hydroxypropylcellulose) (HPC) 90 % of control
